{"source": "patent US4301313A", "about": "“Halogenated ethynyl biphenyls” (Eli-Lilly and Company, priority 1974, dated 1981)", "key": {"[1]": {"experiment": "ultraviolet-induced erythema blocking test, oral (modified Winder method)", "assay_type": "in vivo, guinea pig (male albino)", "conditions": "Cavia porcellus, guinea pig, weighted scores 1.0-2.5 h after UV, dose which provides 50% inhibition", "protocol": "(§1) The compounds of the present invention were evaluated for anti-inflammatoryactivity by the ultraviolet-induced erythema blocking test. The test procedures were a modification of the Winder method (Winder, C. V.; Wax, J.; Burr, V.; Been, M.; and Posiere, C. E.: A Study of Pharmacological Influences on Ultraviolet Erythema in Guinea Pigs. Arch. Int. Pharmacodyn. 116: 261, 1958). Male albino guinea pigs weighing 240-300 gm. were used. The hair on the back was clipped and chemically depilated 15-18 hours before each experiment. The animals were fasted overnight, and on the day of the experiment, were randomized and placed in clear plastic partitioned holders 10×20 cm. wide and 15 cm. high.\nThe compounds to be tested were suspended in 1% methyl cellulose in water, utilizing a tissue homogenizer. The suspensions were administered orally in a volume of 2.0 ml./kg. of body weight. Control animals received an equal amount of the vehicle.\n(§2) The source of ultraviolet light was a Hanovia lamp (Kromayer-Model 10). A notebook reinforcement ring was placed upon the lens of the lamp to provide an area of contrast for grading purposes. The lens was then placed in contact with the skin of the guinea pig's back. Exposure time to UV was for a period of 4 seconds. Beginning one hour after exposure and thereafter at half-hour intervals for another 11/2 hours, the degree of resulting erythema was graded by an arbitrary scoring system based upon the degree of contrast and redness formed. Anti-inflammatory agents delay the development of the erythema and have their greatest effect at the initial grading periods. The scores were, therefore, weighted by factors of 4, 3, 2, and 1 at the 1.0, 1.5, 2.0, and 2.5 hour scoring times, respectively. The erythema was graded as follows:\nTotal scores from each treatment group of four guinea pigs were compared to the scores of the control group. The percent inhibition was calculated as follows: [formula] In the case of compounds showing inhibition, retesting was carried out at a plurality of doses to enable calculation of an ED50 for each such compound. \"ED50 \" designates that dose which provides 50% inhibition. Calculation of the ED50 was either by a standard linear regression method or by estimation from a dose-response curve of three or more points. The compounds so tested and their ED50 s were as follows: […]"}, "[2]": {"experiment": "ultraviolet-induced erythema test, topical application in alcohol solution", "assay_type": "in vivo, guinea pig", "conditions": "for Erythemic score, 1 Hr. after U.V. exposure / Erythemic score, 1.5 Hr. after U.V. exposure / Erythemic score, 2 Hr. after U.V. exposure / Erythemic score, 2.5 Hr. after U.V. exposure: unweighted; for Total erythemic score: control 78", "protocol": "as §1, §2\nTotal scores from each treatment group of four guinea pigs were compared to the scores of the control group. The percent inhibition was calculated as follows: [formula] In the case of compounds showing inhibition, retesting was carried out at a plurality of doses to enable calculation of an ED50 for each such compound. \"ED50 \" designates that dose which provides 50% inhibition. Calculation of the ED50 was either by a standard linear regression method or by estimation from a dose-response curve of three or more points. The compounds so tested and their ED50 s were as follows:\n(4-(2-Fluorophenyl)phenyl)acetylene was also evaluated for anti-inflammatory effect when applied topically. The test procedures were the same as those reported in Examples 29-52 except for three differences: the compound was applied topically in an alcohol solution immediately after exposure to the ultraviolet; scores were not weighted; and results were recorded only as percent inhibition."}, "[3]": {"experiment": "control of inflammation in dogs (ultraviolet-induced erythema, abdominal skin)", "assay_type": "in vivo, dog", "protocol": "(4-(2-Fluorophenyl)phenyl)acetylene was also evaluated for the control of inflammation in dogs. The testing procedures were the same as reported in the preceding examples except for these differences: a 10-second exposure time was used; non-pigmented abdominal skin was used; and the observed erythema was graded every half hour over a three-hour period with no weighting of scores. A placebo control was run with the same test dogs on the day prior to treatment."}, "[4]": {"experiment": "antipyretic effect in yeast-induced fever", "assay_type": "in vivo, rat", "protocol": "(4-(2-Fluorophenyl)phenyl)acetylene was evaluated for antipyretic effect in rats. Fever was induced by subcutaneous injection of yeast, a technique reported at 54 J. Pharm. Exp. Ther. 346 (1935). A total of 24 rats was employed, divided into 6 treatment groups. One group was a normal control, without even the yeast injection. A second group served as a yeast control, receiving yeast injection but none of the test compound. All of the remaining groups received the test compound, in the following pattern: no yeast+100 mg./kg. of compound yeast+100 mg./kg. of compound yeast+50 mg./kg. of compound yeast+10 mg./kg. of compound The procedure was that yeast was administered to all rats at the same time, and temperatures were ascertained two hours later, at which time the test compound was administered to those groups assigned to receive it. Temperatures of all animals were also recorded thereafter at 1.0, 1.5, 2.0, 2.5, and 3.0 hours following administration of the test compound."}, "[5]": {"experiment": "carrageenin induced test, compound administered about 20 hours prior", "assay_type": "in vivo", "conditions": "rat, dose 10 (unit not given), about 20 hours prior to test", "protocol": "(§3) Representative compounds were also evaluated for anti-inflammatory activity in the test method described by C. A. Winter at 111 Proc. Soc. Exp. Biol. Med., 544 (1962). In this method, inflammation is created by injecting carrageenin into the hind paw of rats. Test compounds are administered prior to injection to determine percent inhibition of the subsequent inflammation, in comparison with control animals.\nEach of 4-biphenylylacetylene and (4-(2-fluorophenyl)phenyl)acetylene was evaluated again in the carrageenin induced test method reported in Examples 60-80. However, in these tests, the compound was administered about 20 hours prior to the test procedures."}, "[6]": {"experiment": "carrageenin-induced hind paw inflammation", "assay_type": "in vivo", "conditions": "Rattus norvegicus", "protocol": "as §3"}}, "note": "Where “and” joins values, the source holds several entries; their conditions need not be identical. Identical values can stand only once.", "data": [{"smiles": "C#Cc1ccc(-c2ccccc2F)cc1", "note": "[(4-(2-fluorophenyl)phenyl)acetylene]", "values": [{"measurement": "ED50", "setting": "[1]", "value": 0.05, "unit": "mg/kg"}, {"measurement": "% Inhibition", "setting": "[2]; 1 μg applied", "value": 28, "unit": "%"}, {"measurement": "Erythemic score, 1 Hr. after U.V. exposure", "setting": "[2]; 1 μg applied", "value": 6}, {"measurement": "Erythemic score, 1.5 Hr. after U.V. exposure", "setting": "[2]; 1 μg applied", "value": 13}, {"measurement": "Erythemic score, 2 Hr. after U.V. exposure", "setting": "[2]; 1 μg applied", "value": 18}, {"measurement": "Erythemic score, 2.5 Hr. after U.V. exposure", "setting": "[2]; 1 μg applied", "value": 19}, {"measurement": "Total erythemic score", "setting": "[2]; 1 μg applied", "value": 56}, {"measurement": "% Inhibition", "setting": "[2]; 10 μg applied", "value": 41, "unit": "%"}, {"measurement": "Erythemic score, 1 Hr. after U.V. exposure", "setting": "[2]; 10 μg applied", "value": 5}, {"measurement": "Erythemic score, 1.5 Hr. after U.V. exposure", "setting": "[2]; 10 μg applied", "value": 10}, {"measurement": "Erythemic score, 2 Hr. after U.V. exposure", "setting": "[2]; 10 μg applied", "value": 14}, {"measurement": "Erythemic score, 2.5 Hr. after U.V. exposure", "setting": "[2]; 10 μg applied", "value": 17}, {"measurement": "Total erythemic score", "setting": "[2]; 10 μg applied", "value": 46}, {"measurement": "% Inhibition", "setting": "[2]; 100 μg applied", "value": 83, "unit": "%"}, {"measurement": "Erythemic score, 1 Hr. after U.V. exposure", "setting": "[2]; 100 μg applied", "value": 0}, {"measurement": "Erythemic score, 1.5 Hr. after U.V. exposure", "setting": "[2]; 100 μg applied", "value": 1}, {"measurement": "Erythemic score, 2 Hr. after U.V. exposure", "setting": "[2]; 100 μg applied", "value": 4}, {"measurement": "Erythemic score, 2.5 Hr. after U.V. exposure", "setting": "[2]; 100 μg applied", "value": 8}, {"measurement": "Total erythemic score", "setting": "[2]; 100 μg applied", "value": 13}, {"measurement": "% Erythema Inhibition", "setting": "[3]; dog No. 04, 5 mg/kg", "value": 100, "unit": "%"}, {"measurement": "Total erythemic score", "setting": "[3]; dog No. 04, 5 mg/kg, control 15", "value": 0}, {"measurement": "% Erythema Inhibition", "setting": "[3]; dog No. 05, 1 mg/kg", "value": 71, "unit": "%"}, {"measurement": "Total erythemic score", "setting": "[3]; dog No. 05, 1 mg/kg, control 14", "value": 4}, {"measurement": "% Erythema Inhibition", "setting": "[3]; dog No. 05, 10 mg/kg", "value": 100, "unit": "%"}, {"measurement": "Total erythemic score", "setting": "[3]; dog No. 05, 10 mg/kg, control 14", "value": 0}, {"measurement": "Temperatures of rats receiving both yeast and test compound", "setting": "[4]; 10, 50 and 100 mg./kg., all reading times", "value": "uniformly lower"}, {"measurement": "Temperature change in rats receiving no yeast injection", "setting": "[4]; no yeast, 100 mg./kg.", "value": "some lowering of temperature occurred"}, {"measurement": "Statistical significance of temperature change in rats receiving no yeast", "setting": "[4]; no yeast, 100 mg./kg., versus normal control and yeast control groups", "value": "not statistically significant"}, {"measurement": "Antipyretic action", "setting": "[4]; rats, yeast fever, conclusion", "value": "exhibited antipyretic action"}, {"measurement": "Statistical significance of temperature differences, 1.5 hour reading", "setting": "[4]; yeast rats, 50 mg./kg. and 100 mg./kg., 1.5 hour", "value": "not statistically significant"}, {"measurement": "Statistical significance of temperature differences, 1.0 hour reading", "setting": "[4]; yeast rats, all dose levels, 1.0 hour", "value": "not statistically significant"}, {"measurement": "Statistical significance of temperature differences, all other doses", "setting": "[4]; yeast rats, all other doses/readings", "value": "statistically significant"}, {"measurement": "% Inhibition", "setting": "[5]", "value": "42% and 60%"}, {"measurement": "inhibition in vivo at 0.3 mg/kg", "setting": "[6]; 0.3 mg./kg.", "value": 21, "unit": "%"}, {"measurement": "inhibition in vivo at 0.5 mg/kg", "setting": "[6]; 0.5 mg./kg.", "value": 6, "unit": "%"}, {"measurement": "inhibition in vivo at 1.5 mg/kg", "setting": "[6]; 1.5 mg./kg.", "value": 29, "unit": "%"}, {"measurement": "inhibition in vivo at 2.5 mg/kg", "setting": "[6]; 2.5 mg./kg.", "value": 35, "unit": "%"}, {"measurement": "inhibition in vivo at 5 mg/kg", "setting": "[6]; 5 mg./kg.", "value": 43, "unit": "%"}, {"measurement": "inhibition in vivo at 15 mg/kg", "setting": "[6]; 15 mg./kg.", "value": 56, "unit": "%"}, {"measurement": "inhibition in vivo at 25 mg/kg", "setting": "[6]; 25 mg./kg.", "value": 65, "unit": "%"}, {"measurement": "inhibition in vivo at 50 mg/kg", "setting": "[6]; 50 mg./kg.", "value": 57, "unit": "%"}]}]}
